The experiment has as its target T1, SIRT1 (Homo sapiens, UniProt Q96EB6).
T1 sequence (Q96EB6 1-747): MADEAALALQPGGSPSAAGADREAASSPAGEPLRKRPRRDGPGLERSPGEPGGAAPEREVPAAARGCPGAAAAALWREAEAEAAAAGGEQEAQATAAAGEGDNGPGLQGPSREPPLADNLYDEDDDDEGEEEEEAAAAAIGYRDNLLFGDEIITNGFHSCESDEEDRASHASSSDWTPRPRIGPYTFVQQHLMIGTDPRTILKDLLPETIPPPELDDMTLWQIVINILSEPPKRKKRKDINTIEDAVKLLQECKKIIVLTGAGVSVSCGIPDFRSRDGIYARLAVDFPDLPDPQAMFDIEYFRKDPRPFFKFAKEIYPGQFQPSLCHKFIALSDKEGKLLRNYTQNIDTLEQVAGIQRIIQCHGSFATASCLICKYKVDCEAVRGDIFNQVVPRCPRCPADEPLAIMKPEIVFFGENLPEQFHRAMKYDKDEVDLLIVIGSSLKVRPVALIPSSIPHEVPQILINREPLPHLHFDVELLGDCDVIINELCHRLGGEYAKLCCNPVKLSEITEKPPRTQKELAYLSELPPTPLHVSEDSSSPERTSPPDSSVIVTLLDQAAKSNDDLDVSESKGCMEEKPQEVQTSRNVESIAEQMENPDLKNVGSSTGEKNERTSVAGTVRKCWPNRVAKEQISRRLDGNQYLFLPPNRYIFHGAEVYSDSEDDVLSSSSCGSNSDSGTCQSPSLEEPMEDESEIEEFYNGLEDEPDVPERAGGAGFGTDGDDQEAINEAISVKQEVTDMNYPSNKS
The experiment in a line: Mass spectrometry based SIRT1 deacetylase activation assay (acetylated p53-derived peptide substrate). The experiment is classed as biochemical.

Where [1] appears, read: 0.5 μM peptide substrate, 120 μM βNAD+, 10 nM SIRT1, 25 minutes at 25° C.
[2] abbreviates: 0.5 μM peptide substrate, 120 μM βNAD+, 10 nM SIRT1, 25 min at 25° C.
[3] abbreviates: 0.5 μM peptide substrate, 120 μM βNAD+, 10 nM SIRT1, 25 min at 25° C., read-out: EC1.5.

Each structure is given as a SMILES string. Read-outs that look alike come from different tables or passages of the source.

Regarding `Cc1cnc(NC(=O)c2cccc3[nH]c(-c4cnccc4C(F)(F)F)nc23)s1` [Compound 703, N-(5-methylthiazol-2-yl)-2-(4-(trifluoromethyl)pyridin-3-yl)-1H-benzo[d]imidazole-4-carboxamide], under setting [1], the EC1.5 entry was “A (EC1.5<1.0 uM)” and the “Fold Act. (percent maximum fold activation)” value was “A (Fold activation >200%)”.

With `CN(C)CCNc1ccc(-c2nc3c(C(=O)Nc4nccs4)cccc3[nH]2)cn1` [Compound 259], the EC1.5 result is on record as “B (EC1.5 1-25 uM)” and the “Fold Act. (percent maximum fold activation)” value is “A (Fold activation >200%)”.

For `O=C(Nc1nccs1)c1cc(N2CCOCC2)cc2[nH]c(-c3cc(F)ccc3C(F)(F)F)nc12` [Compound 644], under setting [1], the EC1.5 entry is “A (EC1.5<1.0 uM)” and the “Fold Act. (percent maximum fold activation)” value is reported as “A (Fold activation >200%)”.

As for `O=C(Nc1cccnc1)c1cccc2[nH]c(-c3cc(F)ccc3C(F)(F)F)nc12` [Compound 317], the EC1.5 result was “A (EC1.5<1.0 uM)” and the “Fold Act. (percent maximum fold activation)” value is “A (Fold activation >200%)”.

Regarding `CN1CCOc2cc(-c3nc4c(C(=O)Nc5cnccn5)cccc4[nH]3)cnc21` [Compound 473], the “Fold Act. (percent maximum fold activation)” value under setting [2] is recorded as “A (Fold activation >200%)”. Moreover, the EC1.5 under setting [3] lay within 1000 to 25000 nM.

`O=C(Nc1ccccn1)c1cccc2[nH]c(-c3ccccc3OC3CCNC3)nc12` (centres unmarked) [Compound 460]: the “Fold Act. (percent maximum fold activation)” value under setting [2] is on record as “A (Fold activation >200%)”. Besides, the EC1.5 under setting [3] lay in the range of 1000 to 25000 nM.

For the molecule `O=C(Nc1nccs1)c1cccc2[nH]c(-c3ccc(N4CC[C@@H](F)C4)cc3C(F)(F)F)nc12` [Compound 608], under setting [1], the EC1.5 result is “A (EC1.5<1.0 uM)” and the “Fold Act. (percent maximum fold activation)” value is “A (Fold activation >200%)”.

Regarding `O=C(Nc1ccc(CN2CCNCC2)cn1)c1cccc2[nH]c(-c3ccccc3C(F)(F)F)nc12` [Compound 621, N-(5-(piperazin-1-ylmethyl)pyridin-2-yl)-2-(2-(trifluoromethyl)phenyl)-1H-benzo[d]imidazole-4-carboxamide], under setting [1], the EC1.5 result is reported as “A (EC1.5<1.0 uM)” and the “Fold Act. (percent maximum fold activation)” value is given as “A (Fold activation >200%)”.

On to `O=C(Nc1cc[n+]([O-])cc1)c1cccc2[nH]c(-c3ccccc3C(F)(F)F)nc12` [Compound 337], for which the EC1.5 result is “A (EC1.5<1.0 uM)” and the “Fold Act. (percent maximum fold activation)” value is “A (Fold activation >200%)”.

As for `O=C(Nc1ccccn1)c1cc(N2CCOCC2)cc2[nH]c(-c3ccc(F)cc3C(F)(F)F)nc12` [Compound 690], under setting [1], the EC1.5 result is “A (EC1.5<1.0 uM)” and the “Fold Act. (percent maximum fold activation)” value is “A (Fold activation >200%)”.

Consider `O=C(Nc1nccs1)c1cccc2[nH]c(-c3ccc(OCC(O)CO)cc3)nc12` (centres unmarked) [Compound 325], for which the EC1.5 entry is recorded as “A (EC1.5<1.0 uM)” and the “Fold Act. (percent maximum fold activation)” value was “A (Fold activation >200%)”.

Turning to `O=C(Nc1cccc(OCC(O)CO)c1)c1cccc2[nH]c(-c3ccc(F)cc3C(F)(F)F)nc12` (centres unmarked) [Compound 679], under setting [1], the EC1.5 result is “A (EC1.5<1.0 uM)” and the “Fold Act. (percent maximum fold activation)” value was “A (Fold activation >200%)”.

Regarding `Cc1cc(NC(=O)c2cccc3[nH]c(-c4ccccc4OCCN4CCOCC4)nc23)n(C)n1` [Compound 487], under setting [2], the “Fold Act. (percent maximum fold activation)” value is “A (Fold activation >200%)”. Besides, the EC1.5 under setting [3] fell in the range of 1000 to 25000 nM.

With `O=C(Nc1ccccc1)c1cccc2[nH]c(-c3cc(F)ccc3C(F)(F)F)nc12` [Compound 756], under setting [1], the EC1.5 result is “A (EC1.5<1.0 uM)” and the “Fold Act. (percent maximum fold activation)” value was “A (Fold activation >200%)”.

For the molecule `O=C(Nc1cnccn1)c1cccc2[nH]c(-c3cccc(N4CCOCC4)c3)nc12` [Compound 297], the EC1.5 result was “A (EC1.5<1.0 uM)” and the “Fold Act. (percent maximum fold activation)” value is “A (Fold activation >200%)”.

Consider `O=C(Nc1ccccn1)c1cccc2[nH]c(-c3ccc(OCC(O)CO)cc3C(F)F)nc12` (centres unmarked) [Compound 558], for which, under setting [2], the “Fold Act. (percent maximum fold activation)” value is listed as “A (Fold activation >200%)”. Further, under setting [3], the EC1.5 is < 1000 nM.

The values above are taken from patent US8846947B2, “Benzimidazoles and related analogs as sirtuin modulators” (GlaxoSmithKline LLC, priority 2008, dated 2014).
